Laboratory results taken from patent US5115096A, “Amphiregulin: a bifunctional growth modulating glycoprotein” (Oncogen, priority 1989, dated 1992).
Where two headings read alike, the source gives them in different places.

Legend:
Assay type in all cases: cell-based, human
[1] = test system: AR RNA in MCF-7 (HTB 22) cells; assay: Northern blot of AR RNA in MCF-7 cells
Source text: c-AMP is another regulatory molecule which exerts diverse effects on cells, primarily through cAMP-dependent protein kinase A. Intracellular levels of cAMP are regulated by a combination of receptor-mediated activation and adenylate cyclase inhibition. Some studies indicate that TPA and cAMP induced gene expression may converge as a common pathway. To study the regulation of AR gene expression, we chose to look at the effect of various activators or inhibitors of both these regulatory pathways on the production of AR specific RNA in MCF-7 cells.
Forskolin is a drug which activates adenylate cyclase, resulting in increased intracellular cAMP.
Ten or twenty μg of total RNA was electrophoresed on 1.2% agarose/formaldehyde gels for Northern analysis. The agarose/formaldehyde gels were prepared in 40 mM N-morpholinopropanesulfonic acid (MOPS), pH 7.0/1 mM EDTA/10 mM sodium acetate/2/2 M deionized formaldehyde (pH5.6) in an IBI VCV gel apparatus with frosted plates. RNA was denatured in the same buffer with 50% formamide at 65° C., and run in 1×MOPS, at 20-30 mA for 3-5 hr. […] Bands were scored as (+) if clearly visible after overnight exposure, (+/-) if visible after 3 day exposure, and (++) if detectable after 6 hr. […]

[2] = test system: AR 5' flanking region driving CAT gene in MCF-7 cells; assay: CAT assay, AR 5' regulatory region/CAT constructs transiently introduced into MCF-7 cells
Procedure: MCF-7 cells were grown as described in Section 6.2.1 supra. For each assay, 1-2×10^6 cells were plated in a 100 mm dish in 10 ml media, and 24 hours later, 20 μg calcium phosphate precipitated supercoiled plasmid DNA was added to the cells (Southern and Berg, 1982). The cells were rinsed with fresh media 4 hours after transfection and subjected to a 25% glycerol shock for 90 seconds. Cells were again rinsed and overlayed with 20 ml fresh media containing 0 or 100ng/ml TPA. Cells were washed and harvested 40 hours after glycerol shock and lysed by sonication in 100 μl 1 0.25 M Tris-HCl (pH 7.8). CAT activity was assayed essentially as detailed by Gorman et al. (1982). Cell extract (3-50 μl) was added to […] ^14 C-chloramphenicol (NEN), in a 150 μl reaction volume of 0.5 M Tris (pH 7.8), 0.5 mM AcetylCoA. The reactions were incubated at 37° C. for 2 hours, extracted with 1 ml ethyl acetate and developed on silica gel TLC plates with CHCl3 :1-butanol (95:5). TLC plates were dried and autoradiographed. The acetylated and unacetylated ^14 C-chloramphenicol was quantitated by counting excised spots in Optifluor. Units of CAT enzymatic activity were calculated as μg chloramphenicol acetylated per hour per μg protein in the cell extract.
Primer extension was performed on MCF-7 RNA with 2 separate oligonucleotides from exon 1. […]

MCF-7 cells = assay: Morphology and cell number of MCF-7 cells; settings: MCF-7 cells compared to untreated cells
Source text: TPA induces dramatic morphological changes in a dose-dependent manner. Following TPA treatment, MCF-7 cells lose their well defined morphology, become rounded, and spread out.

[3] = test system: AR RNA in BT-474 (HTB 20) cells; assay: Northern blot of AR RNA, tumor cell line panel; set-up: key: +: clearly visible after overnight exposure; +/-: visible after 3 day exposure; ++: detectable after 6 hr; settings: 24 hour induction with TPA
Procedure: (§1) Ten or twenty μg of total RNA was electrophoresed on 1.2% agarose/formaldehyde gels for Northern analysis. The agarose/formaldehyde gels were prepared in 40 mM N-morpholinopropanesulfonic acid (MOPS), pH 7.0/1 mM EDTA/10 mM sodium acetate/2/2 M deionized formaldehyde (pH5.6) in an IBI VCV gel apparatus with frosted plates. RNA was denatured in the same buffer with 50% formamide at 65° C., and run in 1×MOPS, at 20-30 mA for 3-5 hr. The gel was rinsed in 10×SSC for 30 min and transferred to Hybond-N membranes (Amersham), UV-crosslinked (1200 μJoules), prehybridized and hybridized in 5×SSPE (1×SSPE is 0.18 M NaCl/10 mM sodium phosphate, pH 7.7, 0.1 mM EDTA), 5×Denhardt's, 0.5% SDS, and 20 μg/ml denatured salmon sperm DNA as carrier. Hybridizations were carried out at 42° C. for 16 hr with 2×10^6 cpm/ml of the ^ 32 P-ARBP1. Blots were washed several times in 2×SSC with 0.1% SDS at room temperature followed by 1×SSC/0.1% SDS, 65° C., and exposed on Kodak X-OMAT with two Dupont Lightning Plus intensifying screens at -70° C. Bands were scored as (+) if clearly visible after overnight exposure, (+/-) if visible after 3 day exposure, and (++) if detectable after 6 hr.
(§2) A panel of tumor cell lines was tested for AR RNA levels both before and after 24 hour induction with TPA. With but a few exceptions, the only sources of detectable AR RNA were in human breast cancer lines treated with TPA.

[4] = test system: AR RNA in HEPM (CRL 1486) cells; assay: Northern blot of AR RNA, tumor cell line panel; set-up: key: +: clearly visible after overnight exposure; +/-: visible after 3 day exposure; ++: detectable after 6 hr; settings: 24 hour induction with TPA
Procedure: as §1, §2

[5] = test system: AR RNA in HUF foreskin fibroblast cells; assay: Northern blot of AR RNA, tumor cell line panel; set-up: key: +: clearly visible after overnight exposure; +/-: visible after 3 day exposure; ++: detectable after 6 hr; settings: 24 hour induction with TPA
Procedure: as §1, §2

[6] = test system: AR RNA in MDA-MB-361 (HTB 27) cells; assay: Northern blot of AR RNA, tumor cell line panel; set-up: key: +: clearly visible after overnight exposure; +/-: visible after 3 day exposure; ++: detectable after 6 hr; settings: 24 hour induction with TPA
Procedure: as §1, §2

AR RNA in BT-476 cells = assay: Northern blot of AR RNA, tumor cell line panel; set-up: key: +: clearly visible after overnight exposure; +/-: visible after 3 day exposure; ++: detectable after 6 hr; settings: BT-476, 24 hour induction with TPA
Procedure: as §1, §2

[7] = test system: AR RNA in HBL-100 (HTB 124) cells; assay: Northern blot of AR RNA, tumor cell line panel; set-up: key: +: clearly visible after overnight exposure; +/-: visible after 3 day exposure; ++: detectable after 6 hr; settings: 24 hour induction with TPA
Procedure: as §1, §2

[8] = test system: AR RNA in SK-BR-3 (HTB 30) cells; assay: Northern blot of AR RNA, tumor cell line panel; set-up: key: +: clearly visible after overnight exposure; +/-: visible after 3 day exposure; ++: detectable after 6 hr; settings: 24 hour induction with TPA
Procedure: as §1, §2

[9] = test system: AR RNA in MDA-MB-157 (HTB 24) cells; assay: Northern blot of AR RNA, tumor cell line panel; set-up: key: +: clearly visible after overnight exposure; +/-: visible after 3 day exposure; ++: detectable after 6 hr; settings: 24 hour induction with TPA
Procedure: as §1, §2

[10] = test system: AR RNA in JEG-3 (HTB 36) cells; assay: Northern blot of AR RNA, tumor cell line panel; set-up: key: +: clearly visible after overnight exposure; +/-: visible after 3 day exposure; ++: detectable after 6 hr; settings: 24 hour induction with TPA
Procedure: as §1, §2

[11] = test system: transcription of AR in MCF-7 cells; assay: Nuclear run-off, transcription of AR; settings: in response to TPA

How did the “AR mRNA” value ([1]; MCF-7 cells, 25 uM for 4 hours) turn out when `C=C[C@@]1(C)CC(=O)[C@]2(O)[C@@]3(C)[C@@H](O)CCC(C)(C)[C@@H]3[C@H](O)[C@H](OC(C)=O)[C@@]2(C)O1` [Forskolin] was run?
The value was “marked stimulation”.

Which fold induction at 0.1 µg/mL ([2]; MCF7, 40 h, pXARE1CAT (-648 to +40) in MCF-7 cells, addition of TPA, read-out: stimulation of CAT activity) does the source give for `CCCCCCCCCCCCCC(=O)O[C@@H]1[C@@H](C)[C@@]2(O)[C@@H](C=C(CO)C[C@]3(O)C(=O)C(C)=C[C@@H]23)[C@@H]2C(C)(C)[C@]12OC(C)=O` [TPA, 12-0-tetradecanoyl-phorbol-13-acetate] here?
The fold induction at 0.1 µg/mL was 6 to 7.

What about the fold induction at 0.1 µg/mL ([2]; MCF7, deletion mutants E1a-E1h in MCF-7 cells, 40 hour treatment with 100 ng/ml TPA, read-out: enhanced expression of 5' CAT deletion constructs) of the same compound?
Its fold induction at 0.1 µg/mL is 3.5 to 7.

What about the “time after treatment at which increase in the 1.4 kb AR RNA species was seen” value ([1]; MCF-7 cells treated with TPA for 0-48 hours) of the same compound?
Its value is ≤ 1 h.

What about the “effect on cell number” value (MCF-7 cells) of the same compound?
The value was “dose-dependent reduction in cell number”.

What about the “AR RNA Level, TPA INDUCED” value [3] of the same compound?
Its value is “+”.

What about the “AR RNA Level, TPA INDUCED” value [4] of the same compound?
The value was “+/-”.

And the “AR RNA Level, TPA INDUCED” value [5]?
The value was “+/-”.

What about the “AR RNA Level, TPA INDUCED” value [6] of the same compound?
The value was “++”.

And the “AR RNA Level, TPA INDUCED” value (AR RNA in BT-476 cells)?
Its value is “+”.

And the “AR RNA Level, TPA INDUCED” value [7]?
Its value is “+”.

What about the “AR RNA Level, TPA INDUCED” value [8] of the same compound?
The value was “+”.

And the “AR RNA Level, TPA INDUCED” value [9]?
Its value is “++”.

And the “AR RNA Level, TPA INDUCED” value [10]?
Its value is “+/-”.

And the “increased transcription of AR” value [11]?
The value was 3-5 fold.
